Several values for one entry are separate records, joined by “and”; a condition that tells them apart may be missing. Equal values may be shown once.
Tests used:
Flu A = assay type: cell-based
HCMV = assay: In vitro antiviral screening (selectivity index), HCMV; assay type: cell-based, herpes cytomegalovirus
Flu B = assay type: cell-based
Rift Valley Fever = assay type: cell-based
Dengue = assay: In vitro antiviral screening (selectivity index), Dengue; assay type: cell-based
Measles = assay: In vitro antiviral screening (selectivity index), Measles (NR assay); assay type: cell-based, measles virus
PIV = assay type: cell-based
RV 2 = assay type: cell-based
HSV-1 = assay: In vitro antiviral screening (selectivity index), HSV-1; assay type: cell-based, herpes simplex virus type 1
Punta Toro = assay type: cell-based
HPV-11 = assay: In vitro antiviral screening (selectivity index), HPV-11; assay type: cell-based; settings: human papillomavirus (HPV)
HSV-2 = assay: In vitro antiviral screening (selectivity index), HSV-2; assay type: cell-based, herpes simplex virus type 2
VZV = assay: In vitro antiviral screening (selectivity index), VZV; assay type: cell-based, varicella-zoster virus
Adeno = assay type: cell-based
VEE = assay type: cell-based
Pichinde = assay type: cell-based
Yellow Fever = assay type: cell-based
BK (polyoma) = assay type: cell-based, polyoma (BK) virus
SARS = assay type: cell-based
Cowpox = assay type: cell-based
RSV A = assay: In vitro antiviral screening (selectivity index), RSV A; assay type: cell-based
Vaccinia = assay type: cell-based
Tacaribe = assay type: cell-based
microtubule assembly = settings: Bradley et al., Clin. Cancer Res. 2001; cited from earlier work
[1] = molecular target: human immunodeficiency virus-specified reverse transcriptase (Human immunodeficiency virus type 1 group M subtype B, UniProt P04585); settings: HIV reverse transcriptase; cited from earlier work
[2] = cited from earlier work
[3] = molecular target: cellular DNA polymerase alpha (Homo sapiens, UniProt P09884); settings: cited from earlier work
Sequence of cellular DNA polymerase alpha (P09884 whole entry): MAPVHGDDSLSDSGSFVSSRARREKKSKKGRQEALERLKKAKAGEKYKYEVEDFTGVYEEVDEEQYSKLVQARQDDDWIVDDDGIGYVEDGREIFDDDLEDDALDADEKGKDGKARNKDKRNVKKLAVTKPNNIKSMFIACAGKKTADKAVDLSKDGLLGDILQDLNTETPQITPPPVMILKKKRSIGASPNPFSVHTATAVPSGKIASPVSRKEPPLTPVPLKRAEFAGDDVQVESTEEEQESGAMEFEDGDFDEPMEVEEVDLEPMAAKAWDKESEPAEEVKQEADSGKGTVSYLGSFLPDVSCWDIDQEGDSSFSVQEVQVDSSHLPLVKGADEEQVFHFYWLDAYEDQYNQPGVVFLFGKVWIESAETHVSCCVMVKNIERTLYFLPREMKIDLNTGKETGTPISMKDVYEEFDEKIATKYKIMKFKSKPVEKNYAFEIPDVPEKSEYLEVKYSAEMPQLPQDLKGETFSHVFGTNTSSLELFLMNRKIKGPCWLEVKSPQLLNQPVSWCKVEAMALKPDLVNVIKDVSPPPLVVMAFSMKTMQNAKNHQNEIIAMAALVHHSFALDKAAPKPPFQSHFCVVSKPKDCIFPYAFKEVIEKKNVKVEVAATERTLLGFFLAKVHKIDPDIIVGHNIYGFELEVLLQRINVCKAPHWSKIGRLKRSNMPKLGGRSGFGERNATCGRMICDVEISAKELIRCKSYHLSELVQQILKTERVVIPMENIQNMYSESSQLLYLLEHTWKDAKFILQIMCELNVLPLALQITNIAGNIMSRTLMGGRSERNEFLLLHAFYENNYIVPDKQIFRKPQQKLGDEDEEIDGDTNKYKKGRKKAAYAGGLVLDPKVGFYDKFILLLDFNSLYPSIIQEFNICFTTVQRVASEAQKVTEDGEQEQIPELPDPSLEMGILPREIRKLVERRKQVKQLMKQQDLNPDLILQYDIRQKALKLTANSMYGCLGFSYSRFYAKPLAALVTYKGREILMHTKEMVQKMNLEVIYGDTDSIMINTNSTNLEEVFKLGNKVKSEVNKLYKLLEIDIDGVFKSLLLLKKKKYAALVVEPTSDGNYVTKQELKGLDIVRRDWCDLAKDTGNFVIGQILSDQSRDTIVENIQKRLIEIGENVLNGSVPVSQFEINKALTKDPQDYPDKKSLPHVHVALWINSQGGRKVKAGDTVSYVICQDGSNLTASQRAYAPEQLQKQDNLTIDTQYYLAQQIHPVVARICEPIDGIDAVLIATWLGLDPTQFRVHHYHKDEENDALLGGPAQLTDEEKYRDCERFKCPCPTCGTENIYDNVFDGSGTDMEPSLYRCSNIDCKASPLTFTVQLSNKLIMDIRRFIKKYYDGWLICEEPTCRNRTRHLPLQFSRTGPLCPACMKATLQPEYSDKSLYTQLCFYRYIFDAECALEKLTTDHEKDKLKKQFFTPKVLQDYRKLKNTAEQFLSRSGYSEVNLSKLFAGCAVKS

CCCCCCCC/C=C\CCCCCCCC(=O)NC1=NC=NC2C1N=CN2CCOCP(=O)([O-])[O-].[Na+].[Na+] (stereo not drawn) [Formula III, PMEA-oleyl amide]
SI (selectivity index) (Flu A): 1
SI (selectivity index) (HCMV): 1
SI (selectivity index) (Flu B): 1
SI (selectivity index) (Rift Valley Fever): 1
SI (selectivity index) (Dengue): 1
SI (selectivity index) (Measles; Measles (NR assay)): >20
antiviral activity / sensitivity of virus (Measles; measles virus, in vitro): sensitive only to the compound of Formula III
SI (selectivity index) (PIV): 1
SI (selectivity index) (RV 2): 1
SI (selectivity index) (HSV-1; HSV-1 (1), first replicate): >17.8
SI (selectivity index) (HSV-1; HSV-1 (2), second replicate): >143
antiviral activity / sensitivity of virus (HSV-1; HSV-1, in vitro): sensitive only to the compound of Formula III
SI (selectivity index) (Punta Toro): 1
antiviral activity / sensitivity of virus (HPV-11): sensitive only to the compound of Formula III
SI (selectivity index) (HSV-2; HSV-2 (1), first replicate): >8.5
SI (selectivity index) (HSV-2; HSV-2 (2), second replicate): 5.7
antiviral activity / sensitivity of virus (HSV-2; HSV-2, in vitro): sensitive only to the compound of Formula III
antiviral activity / sensitivity of virus (VZV): sensitive
SI (selectivity index) (Adeno): 1
SI (selectivity index) (VEE): 1
SI (selectivity index) (Pichinde): 1
SI (selectivity index) (Yellow Fever): 1
SI (selectivity index) (BK (polyoma)): >213
antiviral activity / sensitivity of virus (BK (polyoma)): sensitive
SI (selectivity index) (SARS): 1
SI (selectivity index) (Cowpox): 1
SI (selectivity index) (RSV A): 1
SI (selectivity index) (Vaccinia): 1 and >2
SI (selectivity index) (Tacaribe): 2

CC/C=C\C/C=C\C/C=C\C/C=C\C/C=C\C/C=C/CCC(=O)O[C@@H](C(=O)O[C@H]1C[C@@]2(O)[C@@H](OC(=O)c3ccccc3)C3[C@](C)(C(=O)[C@H](OC(C)=O)C(=C1C)C2(C)C)[C@@H](O)C[C@H]1OC[C@@]31OC(C)=O)[C@@H](NC(=O)c1ccccc1)c1ccccc1 (stereo partly drawn) [DHA-paclitaxel]
activity as intact conjugate (microtubule assembly): inactive as intact conjugates

Nc1ncnc2c1ncn2CCOCP(=O)(O)OP(=O)(O)OP(=O)(O)O [PMEApp]
Ki/Km [1]: 0.01
intracellular half-life [2]: 16 to 18 h
Ki/Km [3]: 0.60
